Like-named read-outs stand apart in the source and are kept apart here. Non-standard residues stand in square brackets, D forms with d. Residues, ends and D or L forms follow the SMILES beside them.
Tests used:
H. pylori (ATCC 43504) [1] = tested on: H. pylori (ATCC 43504)
Protocol: The bactericidal activity of peptides was assessed using the time kill assay as previously described with some modifications. Briefly, overnight liquid culture of H. pylori (ATCC 43504) was prepared and an optical density measurement (OD600nm) was taken to provide an estimation of cell numbers in the culture. Bacterial suspension was then centrifuged at 3000 rpm for 5 min and the bacterial pellet was then resuspended in sterile PBS pH6 at approximatively 10^7 CFU/mL. The pH of PBS was changed from 7 to 6 with HCl to mimic the micro-environment surrounding H. pylori in the stomach. Indeed, although the lumen of the stomach is around 1–2, H. pylori is able, through the activity of its urease, to create a local micro-environment around it of pH 6 [31]. In addition to PBS pH 6, the time kill assay was also performed in PBS pH 6 containing a mixture of porcine stomach mucins MUC2 and MUC3 (at 1 mg/mL, final concentration) or in the presence of human gastric cells N87 producing human mucus. In that particular case, N87 cells were seeded onto 96-wells plates and left to grow for 48–72 h until they reached confluence. At that time, wells were aspirated and bacterial suspension in PBS pH 6 were added to the wells. In all cases, resuspended bacteria (200 µL) were treated with peptides or the conventional antibiotic amoxicillin at a final concentration corresponding to five times their MIC. Bacteria were then incubated in micro-aerobic conditions at 37 °C using GasPak units. […] The petri dishes were then incubated 16 h at 37 °C in microaerophilic conditions before counting of growing colonies. The number of surviving bacteria was calculated using the number of observed colonies and the dilution factor. The experiment was done in triplicate.

H. pylori (ATCC 43504) [2] = assay: Membrane permeabilization assay (propidium iodide); settings: propidium iodide, CTAB 300 µM = 100%
Protocol: Bacterial membrane permeabilization was evaluated using the cell-impermeable DNA/RNA probe propidium iodide as previously explained. Logarithmic growing bacterial suspension of H. pylori (ATCC 43504) was prepared from overnight bacterial suspension after 1:10 dilution. After 3 h incubation at 37 °C, in microaerophilic condition, bacterial suspensions were centrifuged for 5 min at 3000× g. Cell pellets were then resuspended in sterile PBS at about […]. Propidium iodide (solution at 1 mg/mL, Sigma Aldrich) was then added to the suspension at a final concentration of 60 µM. 100 µL of this suspension were then transferred into 96-well black plates and were exposed to increasing concentrations of peptides obtained by serial dilution (from zero to 100 µM, 1:2 dilution). […] Kinetics of fluorescence variations (excitation at 530 nm and emission at 590 nm) were then recorded over 240 min of incubation at 37 °C in micro-aerobic condition using a microplate reader (Biotek, Synergy Mx). The effect of the peptides on the membrane integrity was expressed in percentage of permeabilization, CTAB at 300 µM being used as positive control giving 100% permeabilization. All experiments were done in triplicate.

human gastric explants [3] = assay: Ex vivo toxicity assay, LDH release from human gastric explants; assay type: cell-based; settings: peptides 100 µM, CTAB 300 µM, % of total release
Protocol: To further evaluate the innocuity of the peptides, ex vivo experiments were performed using human explants as previously described. Briefly, human gastric tissue samples were obtained from patients undergoing surgery at the Hospital Laveran (Marseille, France), unit of gastrointestinal surgery according to a collaborative clinical transfer project. The procedures were approved by the French ethic committee (CODECOH n° DC-2019-3402). All patients agreed for the use of their tissues for research purposes. Samples were taken from healthy patients during sleeve gastrectomy from macroscopically unaffected area as identified by the surgeons. After resection, the specimens were placed in ice-cold oxygenated sterile DMEM solution containing 1% streptomycin/penicillin solution and 50 μg/mL gentamycin and were directly transferred to the laboratory within 15 min on ice. Gastric tissues were extensively washed and maintained in ice-cold culture media containing 1% streptomycin/penicillin solution and 50 μg/mL gentamycin. Tissues were cleaned from vascular vessels and conjunctive tissue using forceps under binocular microscope. Gastric explants (wet weight of 20–30 mg) were then isolated from the cleaned resections using surgical punch (diameter of 0.5 cm^2). […] Finally, the explants were washed three times with culture media without antibiotics and transferred into 24-well plates before being incubated in RPMI media without fetal bovine serum, antibiotics and phenol red at 37 °C in the 5% CO2 incubator with 100 µM of peptides for 2, 4 or 8 h. Phenol red was omitted from the culture media since it interferes with the lactate dehydrogenase (LDH) assay. The detergent cetyl-trimethylammonium bromide (CTAB) at 300 µM was used as positive control of tissue damages. At the end of the incubation, the explants were collected and washed three times with PBS^++ and were fixed overnight at 4 °C with PFA diluted at 4% in PBS. After that, gastric explants were washed twice with PBS and were included in an inclusion medium (TFM-EMS), in transverse position to allow cutting in the crypt-villosity axis using cryostat (Leica CM3050) (Leica Microsystems, Nanterre, France). Four sections of 5 µm thickness were obtained per explant, each section being separated by 100 µm from the next in order to cover all the tissue. Explants were then stained using hematoxylin and eosin (H&E) staining protocol. Briefly, samples were incubated for 8 min in hematoxylin (Sigma-Aldrich) and then allowed to stain by incubation with water for 2 min. Then explants were incubated for 1 min in eosin (Sigma-Aldrich) and then in water for 1 min. This was followed by incubation of explants with ethanol at concentration of 70% then 95% and finally 100% for 2 min each. After blotting excess ethanol, gastric explants were incubated for 15 min with xylene and mounted with coverslip using Eukitt mounting media (EMS, Hatfield, PA, USA). Finally, explants were left overnight to dry before examination of tissue organization under the microscope (Leitz DMRB microscope (Leïca), equipped with Leïca DFC 450C camera). Quantification of the release of LDH was also used in addition to microscopic observations to evaluate the impact of peptides on human gastric explants. Briefly, after 2, 4 or 8 h of incubation of the explants with the peptides, the supernatants of the wells were collected and stored at -80 °C before the LDH assay. The LDH activity was measured using previously described protocol with minor changes. Briefly, 50 µL of supernatants obtained from explants were mixed with 200 µL of Tris-Lactate buffer (containing Tris HCl at 86 mM, L-Lactate at 56 mM and KCl at 172 mM, pH 9.3, all from Sigma-Aldrich) and 20 µL of NAD (at 172 mM, Sigma-Aldrich) into well of 96-wells plates. Increase in OD339nm was then measured at 30 °C after 0, 1, 5, and 10 min using microplate reader (Synergy Mx, Biotek). […]

human gastric explants [4] = assay: Ex vivo toxicity assay, histological examination (H&E) of human gastric explants; assay type: cell-based; settings: 2, 4 or 8 h; peptides 100 µM, CTAB 300 µM; H&E staining
Protocol: To further evaluate the innocuity of the peptides, ex vivo experiments were performed using human explants as previously described. Briefly, human gastric tissue samples were obtained from patients undergoing surgery at the Hospital Laveran (Marseille, France), unit of gastrointestinal surgery according to a collaborative clinical transfer project. The procedures were approved by the French ethic committee (CODECOH n° DC-2019-3402). All patients agreed for the use of their tissues for research purposes. Samples were taken from healthy patients during sleeve gastrectomy from macroscopically unaffected area as identified by the surgeons. After resection, the specimens were placed in ice-cold oxygenated sterile DMEM solution containing 1% streptomycin/penicillin solution and 50 μg/mL gentamycin and were directly transferred to the laboratory within 15 min on ice. Gastric tissues were extensively washed and maintained in ice-cold culture media containing 1% streptomycin/penicillin solution and 50 μg/mL gentamycin. […] Quantification of the release of LDH was also used in addition to microscopic observations to evaluate the impact of peptides on human gastric explants. […] The LDH activity was measured using previously described protocol with minor changes. […] Increase in OD339nm was then measured at 30 °C after 0, 1, 5, and 10 min using microplate reader (Synergy Mx, Biotek). […]

For `CC[C@H](C)[C@H](NC(=O)CNC(=O)[C@H](CO)NC(=O)[C@H](CC(C)C)NC(=O)[C@@H](N)Cc1ccccc1)C(=O)N[C@H](C(=O)NCC(=O)N[C@@H](CCSC)C(=O)N[C@@H](CC(C)C)C(=O)N[C@H](C)C(=O)N[C@@H](CCCCN)C(=O)N[C@@H](CC(C)C)C(=O)N[C@@H](Cc1ccccc1)C(N)=O)C(C)C` [NST1, H-Phe^1-Leu^2-Ser^3-Gly^4-Ile^5-Val^6-Gly^7-Met^8-Leu^9-D-Ala^10-Lys^11-Leu^12-Phe^13-NH2] (H-FLSGIVGML[dA]KLF-NH2), the “decrease of the number of CFUs” value (H. pylori (ATCC 43504) [1]; 20 min, PBS pH 6, 5-times MIC) was “three”, the killing (H. pylori (ATCC 43504) [1]; 20 min, PBS pH 6, 5-times MIC) was 99% and the killing (H. pylori (ATCC 43504) [1]; 60 min, presence of mucus (porcine MUC2/MUC3 1 mg/mL or N87 cells), 5-times MIC) was 91–98%. For the same molecule, the survival (H. pylori (ATCC 43504) [1]; 3 h, PBS pH 6, 5-times MIC) was 0%, the “membrane permeabilization of H. pylori (ranking in words)” value (H. pylori (ATCC 43504) [2]) was “strongest permeabilization” and the LDH release (human gastric explants [3]; 2 h) was 8.3%. For the same molecule, the LDH release (human gastric explants [3]; 4 h) was 12.0%, the LDH release (human gastric explants [3]; 8 h) was 25.0% and the “tissue organization by microscopic observation” value (human gastric explants [4]) was “tissue organization close to the negative controls”.

From paper PMC6843786, “Temporin-SHa and Its Analogs as Potential Candidates for the Treatment of Helicobacter pylori” (Biomolecules, 2019)
